{
  "source": "PubChem BioAssay (NCI)",
  "experiment_in_all_cases": "growth of human tumour cells (NCI), 48 h",
  "key": {"[1]": {"test_system": "UACC-62 melanoma"}, "[2]": {"test_system": "ACHN renal"}, "[3]": {"test_system": "SNB-19 CNS"}, "[4]": {"test_system": "NCI-H522 lung"}, "[5]": {"test_system": "RXF 393 renal"}, "[6]": {"test_system": "COLO 205 colon"}, "[7]": {"test_system": "UACC-257 melanoma"}, "[8]": {"test_system": "DU-145 prostate"}, "[9]": {"test_system": "HCT-116 colon"}, "[10]": {"test_system": "SW-620 colon"}, "[11]": {"test_system": "SF-295 CNS"}, "[12]": {"test_system": "NCI-H460 lung"}, "[13]": {"test_system": "HCC-2998 colon"}, "[14]": {"test_system": "MOLT-4 leukemia"}, "[15]": {"test_system": "LOX IMVI melanoma"}, "[16]": {"test_system": "NCI-H23 lung"}, "[17]": {"test_system": "CCRF-CEM leukemia"}, "[18]": {"test_system": "HCT-15 colon"}, "[19]": {"test_system": "OVCAR-5 ovarian"}, "[20]": {"test_system": "NCI-H226 lung"}, "[21]": {"test_system": "BT-549 breast"}, "[22]": {"test_system": "MDA-MB-435"}, "[23]": {"test_system": "786-0 renal"}, "[24]": {"test_system": "OVCAR-8 ovarian"}, "[25]": {"test_system": "UO-31 renal"}, "[26]": {"test_system": "A498 renal"}, "[27]": {"test_system": "SR leukemia"}, "[28]": {"test_system": "SK-MEL-2 melanoma"}, "[29]": {"test_system": "OVCAR-4 ovarian"}, "[30]": {"test_system": "HOP-62 NSCLC"}, "[31]": {"test_system": "SK-OV-3 ovarian"}, "[32]": {"test_system": "A549 NSCLC"}, "[33]": {"test_system": "SN12C renal"}, "[34]": {"test_system": "TK-10 renal"}, "[35]": {"test_system": "HOP-92 NSCLC"}, "[36]": {"test_system": "MCF7 breast"}, "[37]": {"test_system": "HL-60(TB) leukemia"}, "[38]": {"test_system": "MDA-MB-231 breast"}, "[39]": {"test_system": "SF-268 CNS"}, "[40]": {"test_system": "OVCAR-3 ovarian"}, "[41]": {"test_system": "HT29 colon"}, "[42]": {"test_system": "CAKI-1 renal"}, "[43]": {"test_system": "HS 578T breast"}, "[44]": {"test_system": "SF-539 CNS"}, "[45]": {"test_system": "PC-3 prostate"}, "[46]": {"test_system": "K-562 leukemia"}, "[47]": {"test_system": "KM12 colon"}, "[48]": {"test_system": "SK-MEL-28 melanoma"}, "[49]": {"test_system": "IGROV1 ovarian"}, "[50]": {"test_system": "RPMI-8226 leukemia"}, "[51]": {"test_system": "SK-MEL-5 melanoma"}, "[52]": {"test_system": "SNB-75 CNS"}, "[53]": {"test_system": "NCI/ADR-RES ovarian"}, "[54]": {"test_system": "MALME-3M melanoma"}, "[55]": {"test_system": "EKVX NSCLC"}, "[56]": {"test_system": "MDA-N"}, "[57]": {"test_system": "T-47D breast"}, "[58]": {"test_system": "U251 CNS"}, "[59]": {"test_system": "M14 melanoma"}},
  "note": "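The compound was tested at five concentrations on cells cultured in 96-well plates, with a 48-hour exposure period. TGI: total growth inhibition.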",
  "data": [
    {"smiles": "CC(=O)OC1CCC2(C)C(=CCC3C4CCC5(OC6CC(C)CN(C(C)=O)C6C5C)C(C)=C4C(=O)C32)C1", "note": "(centres undefined)", "values": [
      {"measurement": "TGI", "setting": "[1]", "value": 18.5, "unit": "µM"},
      {"measurement": "TGI", "setting": "[2]", "value": 67, "unit": "µM"},
      {"measurement": "TGI", "setting": "[3]", "value": 32.7, "unit": "µM"},
      {"measurement": "TGI", "setting": "[4]", "value": 29.4, "unit": "µM"},
      {"measurement": "TGI", "setting": "[5]", "value": 32.2, "unit": "µM"},
      {"measurement": "TGI", "setting": "[6]", "value": 32.4, "unit": "µM"},
      {"measurement": "TGI", "setting": "[7]", "value": 27.3, "unit": "µM"},
      {"measurement": "TGI", "setting": "[8]", "value": "> 100", "unit": "µM"},
      {"measurement": "TGI", "setting": "[9]", "value": 36.7, "unit": "µM"},
      {"measurement": "TGI", "setting": "[10]", "value": "> 100", "unit": "µM"},
      {"measurement": "TGI", "setting": "[11]", "value": 42, "unit": "µM"},
      {"measurement": "TGI", "setting": "[12]", "value": 35.1, "unit": "µM"},
      {"measurement": "TGI", "setting": "[13]", "value": 28.8, "unit": "µM"},
      {"measurement": "TGI", "setting": "[14]", "value": 23.6, "unit": "µM"},
      {"measurement": "TGI", "setting": "[15]", "value": 24.4, "unit": "µM"},
      {"measurement": "TGI", "setting": "[16]", "value": 29.6, "unit": "µM"},
      {"measurement": "TGI", "setting": "[17]", "value": "> 100", "unit": "µM"},
      {"measurement": "TGI", "setting": "[18]", "value": 33.6, "unit": "µM"},
      {"measurement": "TGI", "setting": "[19]", "value": 46.6, "unit": "µM"},
      {"measurement": "TGI", "setting": "[20]", "value": 45.8, "unit": "µM"},
      {"measurement": "TGI", "setting": "[21]", "value": 28.6, "unit": "µM"},
      {"measurement": "TGI", "setting": "[22]", "value": 32, "unit": "µM"},
      {"measurement": "TGI", "setting": "[23]", "value": 72.6, "unit": "µM"},
      {"measurement": "TGI", "setting": "[24]", "value": 46.1, "unit": "µM"},
      {"measurement": "TGI", "setting": "[25]", "value": 81.4, "unit": "µM"},
      {"measurement": "TGI", "setting": "[26]", "value": 31.2, "unit": "µM"},
      {"measurement": "TGI", "setting": "[27]", "value": 40.8, "unit": "µM"},
      {"measurement": "TGI", "setting": "[28]", "value": 31.9, "unit": "µM"},
      {"measurement": "TGI", "setting": "[29]", "value": 61.4, "unit": "µM"},
      {"measurement": "TGI", "setting": "[30]", "value": 46.4, "unit": "µM"},
      {"measurement": "TGI", "setting": "[31]", "value": 66.8, "unit": "µM"},
      {"measurement": "TGI", "setting": "[32]", "value": 47.7, "unit": "µM"},
      {"measurement": "TGI", "setting": "[33]", "value": 46.5, "unit": "µM"},
      {"measurement": "TGI", "setting": "[34]", "value": 56.7, "unit": "µM"},
      {"measurement": "TGI", "setting": "[35]", "value": 28.9, "unit": "µM"},
      {"measurement": "TGI", "setting": "[36]", "value": 26.4, "unit": "µM"},
      {"measurement": "TGI", "setting": "[37]", "value": "> 100", "unit": "µM"},
      {"measurement": "TGI", "setting": "[38]", "value": 33.3, "unit": "µM"},
      {"measurement": "TGI", "setting": "[39]", "value": 31.4, "unit": "µM"},
      {"measurement": "TGI", "setting": "[40]", "value": 72.6, "unit": "µM"},
      {"measurement": "TGI", "setting": "[41]", "value": 43.8, "unit": "µM"},
      {"measurement": "TGI", "setting": "[42]", "value": 75.1, "unit": "µM"},
      {"measurement": "TGI", "setting": "[43]", "value": 31.4, "unit": "µM"},
      {"measurement": "TGI", "setting": "[44]", "value": 39.9, "unit": "µM"},
      {"measurement": "TGI", "setting": "[45]", "value": 28.6, "unit": "µM"},
      {"measurement": "TGI", "setting": "[46]", "value": 52.7, "unit": "µM"},
      {"measurement": "TGI", "setting": "[47]", "value": 37.6, "unit": "µM"},
      {"measurement": "TGI", "setting": "[48]", "value": "> 100", "unit": "µM"},
      {"measurement": "TGI", "setting": "[49]", "value": 29.1, "unit": "µM"},
      {"measurement": "TGI", "setting": "[50]", "value": 37.6, "unit": "µM"},
      {"measurement": "TGI", "setting": "[51]", "value": 21.9, "unit": "µM"},
      {"measurement": "TGI", "setting": "[52]", "value": 41.5, "unit": "µM"},
      {"measurement": "TGI", "setting": "[53]", "value": 49.5, "unit": "µM"},
      {"measurement": "TGI", "setting": "[54]", "value": 29.9, "unit": "µM"},
      {"measurement": "TGI", "setting": "[55]", "value": 27.5, "unit": "µM"},
      {"measurement": "TGI", "setting": "[56]", "value": 48.6, "unit": "µM"},
      {"measurement": "TGI", "setting": "[57]", "value": 49, "unit": "µM"},
      {"measurement": "TGI", "setting": "[58]", "value": 30.8, "unit": "µM"},
      {"measurement": "TGI", "setting": "[59]", "value": 28.9, "unit": "µM"}
    ]}
  ]
}
